One series deals with T1, rat (r) TRPV3 (Rattus norvegicus, UniProt Q4QYD9).
T1 construct: expressed in transfected cells
T1 sequence (Q4QYD9 1-791): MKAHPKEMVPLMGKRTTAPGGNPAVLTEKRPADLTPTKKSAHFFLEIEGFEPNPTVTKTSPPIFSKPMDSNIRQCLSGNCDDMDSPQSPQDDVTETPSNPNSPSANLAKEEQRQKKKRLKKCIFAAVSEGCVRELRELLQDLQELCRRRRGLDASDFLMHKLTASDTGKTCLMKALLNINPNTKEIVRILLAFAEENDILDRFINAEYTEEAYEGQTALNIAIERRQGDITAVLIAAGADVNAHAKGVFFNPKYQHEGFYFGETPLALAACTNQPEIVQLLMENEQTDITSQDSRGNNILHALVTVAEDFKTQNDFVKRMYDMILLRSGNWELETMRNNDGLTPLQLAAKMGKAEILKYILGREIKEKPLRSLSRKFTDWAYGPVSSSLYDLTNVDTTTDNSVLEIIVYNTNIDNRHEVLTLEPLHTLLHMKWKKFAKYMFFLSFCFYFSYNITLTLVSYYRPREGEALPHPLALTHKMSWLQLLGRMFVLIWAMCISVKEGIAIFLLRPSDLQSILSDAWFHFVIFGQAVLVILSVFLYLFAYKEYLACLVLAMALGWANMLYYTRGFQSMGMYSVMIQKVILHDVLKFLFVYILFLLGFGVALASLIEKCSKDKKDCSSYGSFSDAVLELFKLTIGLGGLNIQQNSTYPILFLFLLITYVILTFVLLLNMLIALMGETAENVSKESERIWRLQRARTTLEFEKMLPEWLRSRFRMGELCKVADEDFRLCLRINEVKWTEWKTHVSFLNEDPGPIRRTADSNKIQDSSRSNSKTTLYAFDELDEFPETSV
Description: Whole-cell patch clamp, rat TRPV3-mediated currents.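 Further: compounds tested at concentrations up to 30 µM.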 It counts as cell-based. The text has this: (§1) Whole-cell patch clamp experiments permit the detection of currents through the TRPV3 channel in the cell line described above. A glass electrode is brought into contact with a single cell and the membrane is then ruptured, permitting control of the voltage of the cell membrane and measurement of currents flowing across the membrane using the amplifier attached to the electrode. A perfusion system permits control of the extracellular solution, including the addition of blockers and activators of the current. The current can be activated by heating this solution to 28° C. or warmer or by addition of 20 μM 2-APB to the solution.
(§2) TRPV3 cells were induced 20-48 hours, removed from growth plates, and replated at low density (to attain good single-cell physical separation) on glass coverslips for measurement. In some cases, cells were grown in low density overnight on glass coverslips. Patch clamp recordings were made in the whole-cell mode with a holding potential of −40 mV. Every 5 seconds, a voltage ramp was applied from −120 to +100 mV, 400 ms in duration. Currents elicited were quantified at −80 mV and +80 mV. The internal solution consisted of 140 mM cesium aspartate, 10 mM EGTA, 2.27 mM MgCl2, 1.91 mM CaCl2 and 10 mM HEPES, pH to 7.2 with KOH; with 50 nM calculated free Ca^2+. External solution was Ringer's solution described above. Upon addition of 2-APB or upon heating of the extracellular solution as described above, TRPV3 current was induced only in TRPV3-expressing cells and not in parental HEK293 TREx cells. […] Removal of the stimulus caused most of the current to go away, and inhibitor addition could still inhibit this current. […]
(§3) P1 refers to the Phase 1 current for human (h) and rat (r) TRPV3, and P2 refers to the Phase 2 current for human (h) and rat (r) TRPV3.

A further series deals with T2, human (h) TRPV3 (Homo sapiens, UniProt Q8NET8).
T2 construct: expressed in transfected cells; host or cells: HEK293/TREx, tetracycline-induced
T2 sequence (Q8NET8 1-790): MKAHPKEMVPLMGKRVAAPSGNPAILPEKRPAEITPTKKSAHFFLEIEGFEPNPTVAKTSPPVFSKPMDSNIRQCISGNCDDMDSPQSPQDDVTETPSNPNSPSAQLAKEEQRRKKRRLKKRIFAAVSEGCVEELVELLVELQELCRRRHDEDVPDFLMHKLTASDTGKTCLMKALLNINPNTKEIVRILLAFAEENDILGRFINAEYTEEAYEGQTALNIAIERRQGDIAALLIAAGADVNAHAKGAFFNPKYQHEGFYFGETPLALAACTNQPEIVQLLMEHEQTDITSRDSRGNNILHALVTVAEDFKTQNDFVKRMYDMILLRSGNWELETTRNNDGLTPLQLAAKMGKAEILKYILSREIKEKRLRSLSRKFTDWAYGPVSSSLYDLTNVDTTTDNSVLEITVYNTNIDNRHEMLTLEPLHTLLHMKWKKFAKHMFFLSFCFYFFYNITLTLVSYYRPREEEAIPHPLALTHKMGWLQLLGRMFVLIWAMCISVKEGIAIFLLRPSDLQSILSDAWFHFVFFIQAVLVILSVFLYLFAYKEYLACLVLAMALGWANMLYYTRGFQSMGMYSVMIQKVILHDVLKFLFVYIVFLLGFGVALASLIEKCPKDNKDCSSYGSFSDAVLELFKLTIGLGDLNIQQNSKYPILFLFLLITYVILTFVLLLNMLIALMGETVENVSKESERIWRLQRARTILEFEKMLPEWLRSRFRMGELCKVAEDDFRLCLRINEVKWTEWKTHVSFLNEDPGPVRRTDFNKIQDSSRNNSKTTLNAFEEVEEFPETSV
In words: Whole-cell patch clamp, human TRPV3-mediated currents.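 Further: compounds tested at concentrations up to 30 µM.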 Format: cell-based.
Text: as §1, §2, §3

For another series, the target named is hERG (Homo sapiens, UniProt Q12809). Description: Ion channel selectivity, hERG channel current.
Setting [1] is: Phase 1 inward current, read-out: P1 In (r).
Setting [2] is: Phase 1 outward current, read-out: P1 Out (r).
[3] abbreviates: Phase 2 inward current, read-out: P2 In (r).
[4] abbreviates: Phase 2 outward current, read-out: P2 Out (r).
[5] abbreviates: Phase 2 inward current, read-out: P2 In (h).
[6] abbreviates: Phase 2 outward current, read-out: P2 Out (h).
Setting [7] is: Phase 1 inward current, read-out: P1 In (h).
[8] abbreviates: Phase 1 outward current, read-out: P1 Out (h).

Where two headings read alike, the source gives them in different places. Bounds are passed on as bounds.

Sequence of hERG (Q12809 whole entry): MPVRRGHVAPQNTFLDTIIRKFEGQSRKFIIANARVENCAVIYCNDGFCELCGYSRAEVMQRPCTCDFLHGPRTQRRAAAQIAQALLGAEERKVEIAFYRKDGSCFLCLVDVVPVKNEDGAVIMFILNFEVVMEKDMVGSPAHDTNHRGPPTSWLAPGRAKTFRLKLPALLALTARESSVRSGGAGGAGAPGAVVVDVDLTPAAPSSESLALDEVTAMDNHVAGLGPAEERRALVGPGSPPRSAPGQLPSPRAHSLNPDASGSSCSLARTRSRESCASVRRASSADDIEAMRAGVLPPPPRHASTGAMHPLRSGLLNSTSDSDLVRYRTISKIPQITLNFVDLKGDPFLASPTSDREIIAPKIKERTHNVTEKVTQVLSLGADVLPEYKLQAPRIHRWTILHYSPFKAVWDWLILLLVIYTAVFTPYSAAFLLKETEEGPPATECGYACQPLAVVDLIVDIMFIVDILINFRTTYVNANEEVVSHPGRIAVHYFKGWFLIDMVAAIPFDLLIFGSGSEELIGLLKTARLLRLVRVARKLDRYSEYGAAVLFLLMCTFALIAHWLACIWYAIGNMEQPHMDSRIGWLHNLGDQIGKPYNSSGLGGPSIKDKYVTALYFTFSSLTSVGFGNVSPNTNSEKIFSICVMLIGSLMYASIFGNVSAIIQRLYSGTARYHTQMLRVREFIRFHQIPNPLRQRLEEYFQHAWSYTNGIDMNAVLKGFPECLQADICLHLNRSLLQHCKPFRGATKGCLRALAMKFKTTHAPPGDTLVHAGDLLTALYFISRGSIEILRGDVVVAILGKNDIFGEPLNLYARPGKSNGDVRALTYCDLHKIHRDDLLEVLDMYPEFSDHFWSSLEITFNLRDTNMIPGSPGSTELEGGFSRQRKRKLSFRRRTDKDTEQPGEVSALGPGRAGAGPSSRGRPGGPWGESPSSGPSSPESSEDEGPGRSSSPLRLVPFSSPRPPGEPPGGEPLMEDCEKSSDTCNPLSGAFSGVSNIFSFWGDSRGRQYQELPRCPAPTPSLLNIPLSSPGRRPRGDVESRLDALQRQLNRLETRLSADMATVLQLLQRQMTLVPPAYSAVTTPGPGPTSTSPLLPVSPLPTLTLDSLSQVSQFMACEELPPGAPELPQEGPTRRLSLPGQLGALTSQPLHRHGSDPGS
Description for hERG: Compounds of interest can be tested against these channels at concentrations up to 30 μM, and the resulting data can be used to estimate IC50 for inhibition of the activity of these other ion channels.

On to `COc1cccc(C=Cc2nc3cnccc3c(=O)n2-c2c(C)cccc2C)c1O` [Compound 8], for which the IC50 at rat (r) TRPV3 (setting [1]), on rat (r) TRPV3 (setting [2]), at rat (r) TRPV3 (setting [3]), at rat (r) TRPV3 (setting [4]), on human (h) TRPV3 (setting [5]) and on human (h) TRPV3 (setting [6]) was not above 500 nM in each case. Also, on hERG, the IC50 is not below 20000 nM.
Regarding `CCOc1cccc(/C=C/c2nc3cnccc3c(=O)n2-c2c(C)cccc2C)c1O` [Compound 11], the IC50 at rat (r) TRPV3 (setting [1]), at rat (r) TRPV3 (setting [2]), at human (h) TRPV3 (setting [7]), at human (h) TRPV3 (setting [8]), on human (h) TRPV3 (setting [5]) and at human (h) TRPV3 (setting [6]) was not above 500 nM each time. The IC50 at hERG was not below 20000 nM.
Consider `COc1cccc(/C=C/c2nc3ccccc3c(=O)n2-c2c(C)ccnc2C)c1O` [Compound 32], for which the IC50 on rat (r) TRPV3 (setting [1]) was not above 1000 nM; at rat (r) TRPV3 (setting [2]) it was not above 1000 nM; on rat (r) TRPV3 (setting [3]), not above 500 nM; at rat (r) TRPV3 (setting [4]), not above 1000 nM; on human (h) TRPV3 (setting [7]), not above 500 nM; on human (h) TRPV3 (setting [8]), not above 500 nM. In addition, the IC50 at human (h) TRPV3 (setting [5]) and at human (h) TRPV3 (setting [6]) was not above 500 nM in each case.
For `COc1cccc(/C=C/c2nc3ccccc3c(=O)n2-c2c(C)cncc2C)c1O` [Compound 33], the IC50 at rat (r) TRPV3 (setting [1]), on rat (r) TRPV3 (setting [2]), at rat (r) TRPV3 (setting [3]), on rat (r) TRPV3 (setting [4]), on human (h) TRPV3 (setting [7]) and at human (h) TRPV3 (setting [8]) was not above 500 nM each time. For the same compound, the results for the IC50 at human (h) TRPV3 (setting [5]) and on human (h) TRPV3 (setting [6]) were not above 500 nM and not above 5000 nM, respectively.
As for `CCOc1nccc(/C=C/c2nc3ccccc3c(=O)n2-c2ccccc2C)c1O` [Compound 43], the IC50 at rat (r) TRPV3 (setting [1]), at rat (r) TRPV3 (setting [2]), at rat (r) TRPV3 (setting [3]), at rat (r) TRPV3 (setting [4]), at human (h) TRPV3 (setting [7]) and on human (h) TRPV3 (setting [8]) was not above 500 nM in each case. Further, the IC50 at human (h) TRPV3 (setting [5]) and at human (h) TRPV3 (setting [6]) was not above 500 nM each time.
Take `CCOc1cccc(C=Cc2nc3ccccc3c(=O)n2-c2c(C)cccc2C)c1O` [Compound 49]: the IC50 on rat (r) TRPV3 (setting [1]), on rat (r) TRPV3 (setting [2]), on rat (r) TRPV3 (setting [3]), at rat (r) TRPV3 (setting [4]), at human (h) TRPV3 (setting [7]) and on human (h) TRPV3 (setting [8]) was not above 500 nM in each case. The figures for the IC50 at human (h) TRPV3 (setting [5]), at human (h) TRPV3 (setting [6]) and against hERG were not above 500 nM, not above 500 nM and not below 20000 nM, respectively.
On to `CCc1cccc(CC)c1-n1c(/C=C/c2cccc(OC)c2O)nc2ccccc2c1=O` [Compound 50], for which the IC50 at rat (r) TRPV3 (setting [1]), at rat (r) TRPV3 (setting [2]), at rat (r) TRPV3 (setting [3]), at rat (r) TRPV3 (setting [4]), at human (h) TRPV3 (setting [7]) and on human (h) TRPV3 (setting [8]) was not above 500 nM each time. Also, the IC50 at human (h) TRPV3 (setting [5]) was not above 500 nM; on human (h) TRPV3 (setting [6]), not above 500 nM; against hERG it was not below 20000 nM.
`Cc1cccc(C)c1-n1c(/C=C/c2cccc(OC(C)C)c2O)nc2ccccc2c1=O` [Compound 51]: the IC50 at rat (r) TRPV3 (setting [1]), at rat (r) TRPV3 (setting [2]), at human (h) TRPV3 (setting [7]), at human (h) TRPV3 (setting [8]), at human (h) TRPV3 (setting [5]) and at human (h) TRPV3 (setting [6]) was not above 500 nM throughout.
As to `Cc1cccc(C)c1-n1c(/C=C/c2cccc(OC(F)(F)F)c2O)nc2ccccc2c1=O` [Compound 55], the IC50 on rat (r) TRPV3 (setting [1]), on rat (r) TRPV3 (setting [2]), at human (h) TRPV3 (setting [7]), at human (h) TRPV3 (setting [8]), at human (h) TRPV3 (setting [5]) and at human (h) TRPV3 (setting [6]) was not above 500 nM in each case. Also, the IC50 at hERG is not below 20000 nM.
For the compound `COc1cccc(/C=C/c2nc3ccccc3c(=O)n2-c2c(F)cccc2F)c1O` [Compound 56], the IC50 at rat (r) TRPV3 (setting [1]), at rat (r) TRPV3 (setting [2]), on rat (r) TRPV3 (setting [3]), on rat (r) TRPV3 (setting [4]), on human (h) TRPV3 (setting [7]) and at human (h) TRPV3 (setting [8]) was not above 500 nM in each case. The IC50 at human (h) TRPV3 (setting [5]) and at human (h) TRPV3 (setting [6]) was not above 500 nM throughout.
On to `CCOc1cccc(C=Cc2nc3ccccc3c(=O)n2-c2c(F)cccc2F)c1O` [Compound 57], for which the IC50 at rat (r) TRPV3 (setting [1]), at rat (r) TRPV3 (setting [2]), on human (h) TRPV3 (setting [7]), at human (h) TRPV3 (setting [8]), on human (h) TRPV3 (setting [5]) and on human (h) TRPV3 (setting [6]) was not above 500 nM each time.

For the origin of these results see patent publication US9486455B2, “Compounds for modulating TRPV3 function” (HYDRA BIOSCIENCES, INC., priority 2007, dated 2016).
